We go through 4 molecules from publication PMC6123788, “Down-regulation of cathepsin S and matrix metalloproteinase-9 via Src, a non-receptor tyrosine kinase, suppresses triple-negative breast cancer growth and metastasis” (Experimental & Molecular Medicine, 2018).

What all share (assay type): biochemical
The target in assay [1] is T1, Src (Homo sapiens, UniProt P12931).
T1 construct: recombinant catalytic domain of c-Src
Kind of assay: CycLex c-Src kinase assay (IC90).

The target of assay [2] is T1, Src. Briefly: CycLex c-Src kinase assay (IC90); supported by DARTS in MDA-MB-231 lysate.
Assay [3] deals with T2, CTSS (Homo sapiens, UniProt P25774). Briefly: fluorometric CTSS screening kit (BioVision K149), AFC substrate.
T2 sequence (P25774 115-331): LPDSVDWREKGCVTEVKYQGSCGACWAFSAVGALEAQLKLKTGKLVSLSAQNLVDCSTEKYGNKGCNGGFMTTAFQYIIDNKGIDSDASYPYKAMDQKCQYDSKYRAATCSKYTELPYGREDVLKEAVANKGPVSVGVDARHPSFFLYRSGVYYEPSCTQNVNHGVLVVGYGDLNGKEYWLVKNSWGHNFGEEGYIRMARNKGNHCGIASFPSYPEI
In assay [4] the target is T2, CTSS. The description is as above. This is another data set of the same source.
Assay [5] concerns the target T2, CTSS. Kind of assay: fluorometric CTSS screening kit (BioVision K149), positive control.

T1 sequence (P12931 254-536 limits assumed): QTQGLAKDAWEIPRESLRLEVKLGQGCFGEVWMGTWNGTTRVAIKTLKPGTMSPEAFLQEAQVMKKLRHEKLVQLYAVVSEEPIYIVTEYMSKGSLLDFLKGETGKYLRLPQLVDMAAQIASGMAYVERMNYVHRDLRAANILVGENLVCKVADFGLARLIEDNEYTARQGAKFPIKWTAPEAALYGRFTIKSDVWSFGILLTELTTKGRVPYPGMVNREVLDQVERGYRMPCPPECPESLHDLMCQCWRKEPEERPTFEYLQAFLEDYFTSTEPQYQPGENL

What is called IC90 is the point of the concentration-response curve where the effect stands at 90%. A high value points to a need for much substance. On Src [1], `COc1ccc(Cl)c(Nc2ncnc3cc(OCC4CCN(C)CC4)c(OC)cc23)c1` [AZM-475271] gave an IC90 of 27.3 µM. The term IC50 denotes the point on the concentration scale where inhibition reaches its midpoint. Read a low IC50 as higher potency. The molecule `Cc1nc2c(c(C)c1O)CC(=O)N2` [BJ-2302] yielded an IC90 against Src [2] of 3.2 µM. This molecule returned a concentration for half-maximal inhibition (IC50) against CTSS [3] of 5.1 µM. For `Cc1nc2[nH]c(=O)[nH]c2c(C)c1O` [BJ-2304], the “fluorometric CTSS screening kit (BioVision K149), AFC substrate” value at CTSS [4] is “BJ-2302 exhibited the strongest suppression of CTSS activity (Fig. 3b), followed by BJ-2304”. Molecule `CC(C)C[C@H](NC(=O)[C@H](Cc1ccccc1)NC(=O)OCc1ccccc1)C(=O)C=O` [Z-FL-COCHO] returned an IC50 against CTSS [5] of 0.00019 µM.
